Test results as given in ChEMBL document CHEMBL2380194, “Structure-based design of HSPA5 inhibitors: from peptide to small molecule inhibitors” (Bioorg Med Chem Lett, 2013).
Active and inactive are the calls of the source. The rule behind the calls is not given here.

Columns and labels:
[1] = Cytotoxicity against human PNT2 cells assessed as growth inhibition at 0.1 to 10 uM after 72 hrs by cell titre glo assay; assay type: cell-based; details: pnt2, 72 h
HCT-116 [2] = test: Cytotoxicity against human HCT116 cells assessed as cell viability at 0.1 to 100 uM after 48 hrs by cell titre glo assay; assay type: functional, cell-based
[3] = Cytotoxicity against human PNT2 cells assessed as cell viability at 50 uM after 72 hrs by cell titre glo assay; assay type: cell-based; details: pnt2, 72 h
HCT-116 [4] = test: Cytotoxicity against human HCT116 cells assessed as cell viability at 50 uM after 72 hrs by cell titre glo assay relative to control; assay type: functional; details: HCT-116, 72 h, read-out: Activity
[5] = Cytotoxicity against human DK1 cells assessed as growth inhibition at 25 uM after 20 mins by green fluorescence assay relative to control; assay type: functional; details: DK1, 20 min, read-out: GI
[6] = Cytotoxicity against human PNT2 cells assessed as cell viability after 72 hrs by cell titre glo assay; assay type: cell-based; details: pnt2, 72 h
HCT-116 [7] = test: Cytotoxicity against human HCT116 cells assessed as cell viability after 72 hrs by cell titre glo assay; assay type: functional, cell-based
HCT-116 [8] = test: Cytotoxicity against human HCT116 cells assessed as cell survival at 25 uM after 72 hrs by cell titre glo assay relative to control; assay type: functional; details: HCT-116, 72 h, read-out: Survival
[9] = Cytotoxicity against human DK1 cells assessed as growth inhibition at 50 uM after 20 mins by green fluorescence assay relative to control; assay type: functional; details: DK1, 20 min, read-out: GI

For OC(c1c(Cl)cc(Cl)c2nc(C34CC5CC(CC(C5)C3)C4)ccc12)C1CCCCN1 (configuration not stated), the “growth inhibition (GI)” value [1] was “Toxic” and the Activity (HCT-116 [2]) was “Active”.
In the case of Cc1cc(C)c2nc3c(c(C(O)C4CCCCN4)c2c1)CC/C3=C\c1ccc(Cl)cc1 (configuration not stated), the Activity [3] is reported as “Non-toxic”, the viability at 50 µM (HCT-116 [4]) is reported as 50% and the Activity (HCT-116 [2]) is reported as “Active”.
With CC(C)c1ccc(C(C2=C(O)C3C=CC=CC3OC2=O)c2c(O)c3ccccc3oc2=O)cc1 (configuration not stated) the Activity (HCT-116 [2]) was “Active”.
With OC(c1cc(-c2ccccc2)nc2c1ccc1ccccc12)C1CCCCN1 (configuration not stated) the inhibition of growth at 25 µM [5] was 50%, the Activity [6] was “Dose-dependent effect” and the Activity (HCT-116 [7]) was “Dose-dependent effect”. For the same molecule, the viability at 25 µM (HCT-116 [8]) was 0% and the Activity (HCT-116 [2]) was “Active”.
In the case of COc1ccc2nc3cc(Cl)ccc3c(Nc3ccc(O)c(CN4CCN(C)CC4)c3)c2c1, the inhibition of growth at 25 µM [5] is reported as 50%, the Activity [6] is reported as “Dose-dependent effect” and the Activity (HCT-116 [7]) is reported as “Dose-dependent effect”. For the same molecule, the viability at 25 µM (HCT-116 [8]) was 18% and the Activity (HCT-116 [2]) was “Active”.
In the case of NC(CSC1(c2ccc(Cl)cc2)c2ccccc2-c2ccccc21)C(=O)O (configuration not stated), the inhibition of growth at 50 µM [9] is reported as 50%, the inhibition of growth at 25 µM [5] is reported as 35% and the Activity [6] is reported as “Dose-dependent effect”. For the same molecule, the Activity (HCT-116 [7]) was “Dose-dependent effect” and the Activity (HCT-116 [2]) was “Active”.
For CC[C@@]1(O)C(=O)OCc2c1cc1n(c2=O)Cc2cc3c(CN(C)C)c(O)ccc3nc2-1 [TOPOTECAN], the “growth inhibition (GI)” value [1] was “Toxic” and the Activity (HCT-116 [2]) was “Active”.
For NS(=O)(=O)c1cc2c(cc1Cl)NC(Cc1ccccc1)NS2(=O)=O (configuration not stated), the Activity (HCT-116 [2]) was “inactive”.
For O=C1c2ccccc2NC(c2cc(Cl)cc(Cl)c2O)N1CCc1ccccn1 (configuration not stated), the Activity [3] was “Non-toxic”, the viability at 50 µM (HCT-116 [4]) was 50% and the Activity (HCT-116 [2]) was “Active”.
